# US12660819B2, “Herbicidal derivatives” (SYNGENTA CROP PROTECTION AG, priority 2020, dated 2026)
# Columns and labels:
# Type in all cases: in vivo
# [1] = test system: Zea mays (ZEAMX); test: Pre-emergence Test (glasshouse, percentage damage to the plant); settings: 1000 g/ha unless otherwise stated, five-point scale
# [2] = test system: Abutilon theophrasti (ABUTH); test: as above; settings: 1000 g/ha unless otherwise stated, five-point scale
# [3] = test system: Setaria faberi (SETFA); test: Post-emergence Test (glasshouse, percentage damage to the plant); settings: post-emergence spray, 1000 g/ha unless otherwise stated, evaluated after 13 days
# Summary of the method: (§1)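 Seeds sown in pots in glasshouse (24/16 °C day/night, 14 h light, 65% humidity), then sprayed with compound at 1000 g/ha unless stated, from acetone/water 50:50 with 0.5% Tween 20. Damage assessed 13 days later on five-point scale (1=0–20% to 5=81–100%).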
# [4] = test system: Abutilon theophrasti (ABUTH); test: as above; settings: post-emergence spray, 1000 g/ha unless otherwise stated, evaluated after 13 days
# Summary of the method: (§2)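 After sowing in standard soil, pots were kept at 24/16 °C (day/night), 14 h light and 65% humidity. They were sprayed at 1000 g/ha unless otherwise stated, watered twice daily, and assessed for percentage damage at 13 days on a 1–5 scale.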
# [5] = test system: Amaranthus retoflexus (AMARE); test: as above; settings: post-emergence spray, 1000 g/ha unless otherwise stated, evaluated after 13 days
# Summary of the method: as §2
# [6] = test system: Echinochloa crus-galli (ECHCG); test: as above; settings: post-emergence spray, 1000 g/ha unless otherwise stated, evaluated after 13 days
# Summary of the method: as §2
# [7] = test system: Ipomoea hederacea (IPOHE); test: as above; settings: post-emergence spray, 1000 g/ha unless otherwise stated, evaluated after 13 days
# Summary of the method: as §1
# [8] = test system: Zea mays (ZEAMX); test: as above; settings: post-emergence spray, 1000 g/ha unless otherwise stated, evaluated after 13 days
# Summary of the method: as §1
# [9] = test system: Ipomoea hederacea (IPOHE); test: Pre-emergence Test (glasshouse, percentage damage to the plant); settings: 1000 g/ha unless otherwise stated, five-point scale
# [10] = test system: Amaranthus retoflexus (AMARE); test: as above; settings: 1000 g/ha unless otherwise stated, five-point scale
# [11] = test system: Echinochloa crus-galli (ECHCG); test: as above; settings: 1000 g/ha unless otherwise stated, five-point scale
# [12] = test system: Setaria faberi (SETFA); test: as above; settings: 1000 g/ha unless otherwise stated, five-point scale
Compound,"percentage damage to the plant, ZEAMX [1]","percentage damage to the plant, ABUTH [2]","Post-emergence Test SETFA, percentage damage to the plant (five-point scale) [3]","Post-emergence Test ABUTH, percentage damage to the plant (five-point scale) [4]","Post-emergence Test AMARE, percentage damage to the plant (five-point scale) [5]","Post-emergence Test ECHCG, percentage damage to the plant (five-point scale) [6]","Post-emergence Test IPOHE, percentage damage to the plant (five-point scale) [7]","Post-emergence Test ZEAMX, percentage damage to the plant (five-point scale) [8]","percentage damage to the plant, IPOHE [9]","percentage damage to the plant, AMARE [10]","percentage damage to the plant, ECHCG [11]","percentage damage to the plant, SETFA [12]"
"CCn1c(C)c(-c2ccc(Cl)cc2OC)c(=O)c(C(=O)O)c1-c1ccc(Cl)c(Cl)c1 [Compound 154, 5-(4-chloro-2-methoxy-phenyl)-2-(3,4-dichlorophenyl)-1-ethyl-6-methyl-4-oxo-pyridine-3-carboxylic acid]",2 (2=21-40%),3 (3=41-60%),4 (4=61-80%),4 (4=61-80%),4 (4=61-80%),4 (4=61-80%),4 (4=61-80%),3 (3=41-60%),3 (3=41-60%),1 (1=0-20%),5 (5=81-100%),4 (4=61-80%)
"CCn1c(C)c(-c2ccc(F)cc2OC)c(=O)c(C(=O)O)c1-c1ccc(Cl)c(Cl)c1 [Compound 157, 2-(3,4-dichlorophenyl)-1-ethyl-5-(4-fluoro-2-methoxy-phenyl)-6-methyl-4-oxo-pyridine-3-carboxylic acid]",3 (3=41-60%),4 (4=61-80%),4 (4=61-80%),4 (4=61-80%),1 (1=0-20%),4 (4=61-80%),4 (4=61-80%),4 (4=61-80%),2 (2=21-40%),0,4 (4=61-80%),5 (5=81-100%)
"CCn1c(C)c(-c2cnc3c(c2)OC(F)(F)O3)c(=O)c(C(=O)O)c1-c1ccc(Cl)c(Cl)c1 [Compound 60, 2-(3,4-dichlorophenyl)-5-(2,2-difluoro-[1,3]dioxolo[4,5-b]pyridin-6-yl)-1-ethyl-6-methyl-4-oxo-pyridine-3-carboxylic acid]",1 (1=0-20%),3 (3=41-60%),4 (4=61-80%),2 (2=21-40%),2 (2=21-40%),3 (3=41-60%),2 (2=21-40%),1 (1=0-20%),2 (2=21-40%),2 (2=21-40%),2 (2=21-40%),4 (4=61-80%)
"CCn1c(C)c(-c2ccc(Cl)c(C(=O)NC3CC3)c2)c(=O)c(C(=O)O)c1-c1ccc(Cl)c(Cl)c1 [Compound 83, 5-[4-chloro-3-(cyclopropylcarbamoyl)phenyl]-2-(3,4-dichlorophenyl)-1-ethyl-6-methyl-4-oxo-pyridine-3-carboxylic acid]",1 (1=0-20%),1 (1=0-20%),2 (2=21-40%),2 (2=21-40%),1 (1=0-20%),1 (1=0-20%),1 (1=0-20%),1 (1=0-20%),1 (1=0-20%),1 (1=0-20%),1 (1=0-20%),1 (1=0-20%)
"CCn1c(C)c(-c2ccc(Cl)cc2)c(=O)c(C(=O)O)c1-c1ccc(F)cc1F [Compound 130, 5-(4-chlorophenyl)-2-(2,4-difluorophenyl)-1-ethyl-6-methyl-4-oxo-pyridine-3-carboxylic acid]",3 (3=41-60%),3 (3=41-60%),4 (4=61-80%),3 (3=41-60%),3 (3=41-60%),3 (3=41-60%),3 (3=41-60%),2 (2=21-40%),3 (3=41-60%),3 (3=41-60%),4 (4=61-80%),5 (5=81-100%)
"CCn1c(C)c(-c2cc(Cl)cc(Cl)c2)c(=O)c(C(=O)O)c1-c1ccc(Cl)c(Cl)c1 [Compound 56, 2-(3,4-dichlorophenyl)-5-(3,5-dichlorophenyl)-1-ethyl-6-methyl-4-oxo-pyridine-3-carboxylic acid]",1 (1=0-20%),1 (1=0-20%),1 (1=0-20%),1 (1=0-20%),1 (1=0-20%),1 (1=0-20%),1 (1=0-20%),1 (1=0-20%),1 (1=0-20%),1 (1=0-20%),1 (1=0-20%),1 (1=0-20%)
"CCn1c(C)c(-c2ccc(OC(F)(F)F)cc2)c(=O)c(C(=O)O)c1-c1ccc(F)cc1F [Compound 136, 2-(2,4-difluorophenyl)-1-ethyl-6-methyl-4-oxo-5-[4-(trifluoromethoxy)phenyl]pyridine-3-carboxylic acid]",1 (1=0-20%),3 (3=41-60%),4 (4=61-80%),3 (3=41-60%),3 (3=41-60%),3 (3=41-60%),2 (2=21-40%),1 (1=0-20%),2 (2=21-40%),2 (2=21-40%),3 (3=41-60%),5 (5=81-100%)
"CCn1c(C)c(-c2cc(Cl)nc(OC(C)C)c2)c(=O)c(C(=O)O)c1-c1ccc(Cl)c(Cl)c1 [Compound 69, 5-(2-chloro-6-isopropoxy-4-pyridyl)-2-(3,4-dichlorophenyl)-1-ethyl-6-methyl-4-oxo-pyridine-3-carboxylic acid]",2 (2=21-40%),2 (2=21-40%),3 (3=41-60%),2 (2=21-40%),2 (2=21-40%),1 (1=0-20%),3 (3=41-60%),1 (1=0-20%),4 (4=61-80%),1 (1=0-20%),1 (1=0-20%),4 (4=61-80%)
